Source: paper PMC11791359, “A select inhibitor of MORC2 encapsulated by chimeric membranecoated DNA nanocage target alleviation TNBC progression” (Materials Today Bio, 2025)
Residues, ends and D or L forms follow the SMILES beside them. *: point of attachment. Cbz = O=C(OCc1ccccc1)*; CH2F = FC*

Key:
[1] = system: neutrophils; test: Phagocytosis by neutrophils (fluorescence microscopy); type: cell-based, human; conditions: incubated 4 hours
[2] = system: primary TNBC cells; test: Uptake by primary TNBC cells (fluorescence microscopy); type: cell-based, human; conditions: incubated 6 hours
[3] = system: TNBC-bearing BALB/c nude mice; test: In vivo distribution and tumor uptake in TNBC-bearing mice; conditions: tail vein injection, fluorescent in vivo imaging
[4] = system: TNBC-bearing BALB/c nude mice; conditions: mouse, in vivo
[5] = system: TNBC cells; test: Apoptosis by flow cytometry (Annexin V-FITC/PI); type: cell-based, human; conditions: TNBC cells, Angoline plus apoptosis inhibitor
Method: The treated cells were digested with pancreatic enzymes and then were collected and washed with PBS. The cells were immobilized with pre-cooled 70% ethanol at 4 ℃ for 12-24 hours, and then centrifuged, washed, and suspended to ensure uniform cell dispersion. Propyridine iodide staining solution was added to each cell sample and incubated without light at 37 ℃ for 30 minutes. Subsequently, the labeled cells were subjected to cell cycle analysis using flow cytometer (Beckman Coulter, USA), and the results were processed by FlowJo software. For the apoptosis assay, 1 × 10^5 cells per sample were collected into 1.5 mL centrifuge tubes and were re-suspended with 195 μL Annexin V-FITC binding solution. Then, 5 μL Annexin V-FITC and 10 μL PI dyeing solution were added into every sample to re-suspend the cells and incubated at 20-25 °C for 20 minutes. Flow cytometry was used to detect red fluorescence at 638 nm and green fluorescence at 488 nm, and the apoptosis results were analysed by FlowJo software.

Rhodamine
uptake by neutrophils [1]: neutrophils were entirely covered with red fluorescence
uptake by primary TNBC cells [2]: rarely taken up by TNBC cells
distribution in tumor-bearing mice [3]: rapidly diffused throughout the nude mice and was quickly cleared
uptake in tumor tissue sections [4]: rarely taken up by tumor cells

COC(=O)C[C@H](NC(=O)[C@H](C)NC(=O)[C@@H](NC(=O)OCc1ccccc1)C(C)C)C(=O)CF [Z-VAD-FMK, reference compound] (Cbz-Val-Ala-Asp(OMe)-CH2F)
effect on the proapoptotic effect of Angoline [5]: significantly reduce the proapoptotic effect of Angoline
